# Experimental data as given in US8110605B2, “Compound for inactivating viruses and bacteria and method of making same” (priority 2009, dated 2012).
# Values joined by “and” are separate entries in the source; they are usually repeats but may differ in a detail not shown here. Identical values can stand only once. Like-named read-outs stand apart in the source and are kept apart here.
# Experiments:
# [1] = test system: Tamiflu™-resistant strain H1N1 influenza virus (A/TW/066/09); assay type: cell-based
# [2] = test system: Tamiflu™-resistant H1N1 subtype influenza virus (A/TW/066/09) virions
smiles,measurement,setting,value
O=C(O)C(CCCCCCCCCCS)C(=O)O [2-(10-mercaptodecyl)-propanedioic acid],concentration protecting cells against infection by Tamiflu-resistant H1N1 influenza virus (as low as),[1],30 ppm
same,"CPE, Tamiflu-resistant H1N1 influenza virus treated with compound",[1]; 3 ppm,+
same,"CPE, Tamiflu-resistant H1N1 influenza virus treated with compound",[1]; 30 ppm,−
same,"CPE, Tamiflu-resistant H1N1 influenza virus treated with compound",[1]; 100 ppm,−
same,"CPE, Tamiflu-resistant H1N1 influenza virus treated with compound",[1]; 300 ppm,−
same,"CPE, Tamiflu-resistant H1N1 influenza virus treated with compound","[1]; 1,000 ppm",CTX
same,"CPE, Tamiflu-resistant H1N1 influenza virus treated with compound","[1]; 3,000 ppm",CTX
same,maximum height of particles (AFM cursor profile),[2],~6.95 nm and ~5.28 nm
same,viral morphology by AFM,[2],disrupted and somewhat flattened
same,calculated RMS height of treated particles,[2]; 30 ppm,7.09±0.42 nm
same,calculated RMS height of treated particles,[2]; 300 ppm,5.39±0.23 nm
